This experiment relates to PD-L1. The experiment in a line: PD-L1 expression in gastric cancer cells by flow cytometer. Type of experiment: cell-based. The note with it: AGS; metformin at a concentration 50 times higher than that of JH-001 (FIG. 8). How it is done: After treating an AGS cell line, a gastric cancer cell line, with JH-001 for each concentration, the expression of PD-L1, an immunocompromised marker, was confirmed using a flow cytometer. […] In addition, metformin, known as a mitochondria-targeting drug, was treated at a concentration 50 times higher than that of JH-001 and the expression level of PD-L1 was confirmed. As a result, it was confirmed that JH-001 according to the present disclosure inhibited PD-L1 expression about 2 times higher than metformin treatment, even though JH-001 was treated at a much lower concentration (FIG. 8).
In general terms: Flow cytometry measures light scatter and fluorescence of single cells or particles in a stream.

Structures are written as SMILES.

For `CN(CCCNC(=O)CCCCC[P+](c1ccccc1)(c1ccccc1)c1ccccc1)C(=N)NC(=N)N` [JH-001, (6-((3-(3-carbamimidoyl-1-methylguanidino)propyl)amino)-6-oxohexyl)triphenylphosphonium], the “inhibition of PD-L1 expression relative to metformin treatment” value is “about 2 times”.

Values taken from EP4667476A1, “NOVEL MITOCHONDRIA-TARGETING COMPOUNDS” (THE CATHOLIC UNIVERSITY OF KOREA INDUSTRY-ACADEMIC …, priority 2023, dated 2024).
